Consider 23 compounds from US10654832B2, “3-(benzoimidazol-2-YL)-indazole inhibitors of the Wnt signaling pathway and therapeutic uses thereof” (Samumed, LLC, priority 2013, dated 2020).

The test concerns Wnt activity (wnt-responsive SP5 promoter luciferase reporter in SW480 cells). Briefly: Wnt activity reporter assay (SP5 promoter-firefly luciferase in SW480 cells). The following applies: Homo sapiens; SW480 colon cancer cells with SP5 promoter luciferase reporter; 24 h after compound addition; half-log dilutions, three micromolar top concentration; normalized to DMSO; read-out: Wnt inhibition. The class given is cell-based. The gist of the method: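 SW480 cells (APC-mutant) stably carried a lentiviral SP5-promoter (eight TCF/LEF sites) firefly luciferase reporter. Signals were normalized to DMSO-only cells to derive IC50.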

For `O=C(Nc1cncc(-c2ccc3[nH]nc(-c4nc5c(-c6ccncc6)cccc5[nH]4)c3c2)c1)C1CCC1` [Compound 116, N-(5-(3-(4-(Pyridin-4-yl)-1H-benzo[d]imidazol-2-yl)-1H-indazol-5-yl)pyridin-3-yl)cyclobutanecarboxamide], the IC50 is 23 nM.

Regarding `CN1CCN(c2cccc3[nH]c(-c4n[nH]c5ccc(-c6cncc(NC(=O)Cc7ccccc7)c6)cc45)nc23)CC1` [Compound 202, N-(5-(3-(4-(4-methylpiperazin-1-yl)-1H-benzo[d]imidazol-2-yl)-1H-indazol-5-yl)pyridin-3-yl)-2-phenylacetamide], the IC50 worked out at 248 nM.

Turning to `CN(C)c1cncc(-c2ccc3[nH]nc(-c4nc5c(-c6cccnc6)cccc5[nH]4)c3c2)c1` [Compound 79, N,N-Dimethyl-5-(3-(4-(pyridin-3-yl)-1H-benzo[d]imidazol-2-yl)-1H-indazol-5-yl)pyridin-3-amine], the IC50 stood at 45 nM.

Turning to `O=C(Nc1cncc(-c2ccc3[nH]nc(-c4nc5c(-c6cccc(F)c6)cccc5[nH]4)c3c2)c1)C1CCCC1` [Compound 21, N-(5-(3-(4-(3-Fluorophenyl)-1H-benzo[d]imidazol-2-yl)-1H-indazol-5-yl)pyridin-3-yl)cyclopentanecarboxamide], the IC50 is 50 nM.

Consider `O=C(Nc1cncc(-c2ccc3[nH]nc(-c4nc5c(-c6cccnc6)cccc5[nH]4)c3c2)c1)C1CCC1` [Compound 92, N-(5-(3-(4-(Pyridin-3-yl)-1H-benzo[d]imidazol-2-yl)-1H-indazol-5-yl)pyridin-3-yl)cyclobutanecarboxamide], for which the IC50 is 8 nM.

Turning to `O=C(Nc1cncc(-c2ccc3[nH]nc(-c4nc5c(-c6cccnc6)cccc5[nH]4)c3c2)c1)C1CCCCC1` [Compound 94, N-(5-(3-(4-(Pyridin-3-yl)-1H-benzo[d]imidazol-2-yl)-1H-indazol-5-yl)pyridin-3-yl)cyclohexanecarboxamide], the IC50 is 121 nM.

For the compound `c1ccc(CNCc2cncc(-c3ccc4[nH]nc(-c5nc6c(-c7cccnc7)cccc6[nH]5)c4c3)c2)cc1` [Compound 95, N-Benzyl-1-(5-(3-(4-(pyridin-3-yl)-1H-benzo[d]imidazol-2-yl)-1H-indazol-5-yl)pyridin-3-yl)methanamine], the IC50 is 163 nM.

Consider `c1cc(-c2ccncc2)c2nc(-c3n[nH]c4ccc(-c5cncc(CN6CCCC6)c5)cc34)[nH]c2c1` [Compound 110, 3-(4-(Pyridin-4-yl)-1H-benzo[d]imidazol-2-yl)-5-(5-(pyrrolidin-1-ylmethyl)pyridin-3-yl)-1H-indazole], for which the IC50 was 205 nM.

In the case of `O=C(Nc1cncc(-c2ccc3[nH]nc(-c4nc5c(-c6ccccc6F)cccc5[nH]4)c3c2)c1)C1CCCC1` [Compound 69, N-(5-(3-(4-(2-Fluorophenyl)-1H-benzo[d]imidazol-2-yl)-1H-indazol-5-yl)pyridin-3-yl)cyclopentanecarboxamide], the IC50 turned out to be 23 nM.

`Cc1ccncc1-c1ccc2[nH]nc(-c3nc4ccccc4[nH]3)c2c1` [Compound 221, 3-(1H-Benzo[d]imidazol-2-yl)-5-(4-methylpyridin-3-yl)-1H-indazole]: the IC50 was 317 nM.

Turning to `CN(C)Cc1cncc(-c2ccc3[nH]nc(-c4nc5c(-c6cccc(F)c6)cccc5[nH]4)c3c2)c1` [Compound 13, 1-(5-(3-(4-(3-Fluorophenyl)-1H-benzo[d]imidazol-2-yl)-1H-indazol-5-yl)pyridin-3-yl)-N,N-dimethylmethanamine], the IC50 amounted to 11 nM.

Consider `CCCCC(=O)Nc1cncc(-c2ccc3[nH]nc(-c4nc5c(-n6cnc(C)c6)cccc5[nH]4)c3c2)c1` [Compound 186, N-(5-(3-(4-(4-Methyl-1H-imidazol-1-yl)-1H-benzo[d]imidazol-2-yl)-1H-indazol-5-yl)pyridin-3-yl)pentanamide], for which the IC50 was found to be 6 nM.

On to `CC(C)(C)C(=O)Nc1cncc(-c2ccc3[nH]nc(-c4nc5c(-c6ccoc6)cccc5[nH]4)c3c2)c1` [Compound 272, N-(5-(3-(4-(Furan-3-yl)-1H-benzo[d]imidazol-2-yl)-1H-indazol-5-yl)pyridin-3-yl)pivalamide], for which the IC50 turned out to be 159 nM.

With `CC(C)C(=O)Nc1cncc(-c2ccc3[nH]nc(-c4nc5c(-c6ccc(F)cc6)cccc5[nH]4)c3c2)c1` [Compound 33, N-(5-(3-(4-(4-Fluorophenyl)-1H-benzo[d]imidazol-2-yl)-1H-indazol-5-yl)pyridin-3-yl)isobutyramide], the IC50 amounted to 34 nM.

With `CCNCc1cncc(-c2ccc3[nH]nc(-c4nc5c(-c6ccccc6F)cccc5[nH]4)c3c2)c1` [Compound 54, N-((5-(3-(4-(2-Fluorophenyl)-1H-benzo[d]imidazol-2-yl)-1H-indazol-5-yl)pyridin-3-yl)methyl)ethanamine], the IC50 was 46 nM.

For the compound `CN(C)c1cncc(-c2ccc3[nH]nc(-c4nc5c(-c6ccccn6)cccc5[nH]4)c3c2)c1` [Compound 127, N,N-Dimethyl-5-(3-(4-(pyridin-2-yl)-1H-benzo[d]imidazol-2-yl)-1H-indazol-5-yl)pyridin-3-amine], the IC50 is 32 nM.

`O=C(Cc1ccccc1)Nc1cncc(-c2ccc3[nH]nc(-c4nc5c(-c6cccc(F)c6)cccc5[nH]4)c3c2)c1` [Compound 10, N-(5-(3-(4-(3-Fluorophenyl)-1H-benzo[d]imidazol-2-yl)-1H-indazol-5-yl)pyridin-3-yl)-2-phenylacetamide]: the IC50 amounted to 69 nM.

For the compound `O=C(Nc1cncc(-c2ccc3[nH]nc(-c4nc5c(-c6ccncc6)cccc5[nH]4)c3c2)c1)C1CCCC1` [Compound 117, N-(5-(3-(4-(Pyridin-4-yl)-1H-benzo[d]imidazol-2-yl)-1H-indazol-5-yl)pyridin-3-yl)cyclopentanecarboxamide], the IC50 was 54 nM.

Consider `c1ccc(-c2cccc3[nH]c(-c4n[nH]c5ccc(-c6cncc(CNCC7CCCC7)c6)cc45)nc23)nc1` [Compound 144, 1-Cyclopentyl-N-((5-(3-(4-(pyridin-2-yl)-1H-benzo[d]imidazol-2-yl)-1H-indazol-5-yl)pyridin-3-yl)methyl)methanamine], for which the IC50 amounted to 1180 nM.

As to `O=C(Nc1cncc(-c2ccc3[nH]nc(-c4nc5c(-c6ccncc6)cccc5[nH]4)c3c2)c1)C1CCCCC1` [Compound 118, N-(5-(3-(4-(Pyridin-4-yl)-1H-benzo[d]imidazol-2-yl)-1H-indazol-5-yl)pyridin-3-yl)cyclohexanecarboxamide], the IC50 worked out at 1460 nM.

Regarding `CCC(=O)Nc1cncc(-c2ccc3[nH]nc(-c4nc5c(-c6cccc(F)c6)cccc5[nH]4)c3c2)c1` [Compound 1, N-(5-(3-(4-(3-Fluorophenyl)-1H-benzo[d]imidazol-2-yl)-1H-indazol-5-yl)pyridin-3-yl)propionamide], the IC50 came out at 2 nM.

`c1cc(-c2ccsc2)c2nc(-c3n[nH]c4ccc(-c5cncc(CN6CCCC6)c5)cc34)[nH]c2c1` [Compound 254, 5-(5-(Pyrrolidin-1-ylmethyl)pyridin-3-yl)-3-(4-(thiophen-3-yl)-1H-benzo[d]imidazol-2-yl)-1H-indazole]: the IC50 was determined as 2 nM.

`CC(C)Nc1cncc(-c2ccc3[nH]nc(-c4nc5c(-c6cccnc6)cccc5[nH]4)c3c2)c1` [Compound 84, N-Isopropyl-5-(3-(4-(pyridin-3-yl)-1H-benzo[d]imidazol-2-yl)-1H-indazol-5-yl)pyridin-3-amine]: the IC50 is 13 nM.
